Where two headings read alike, the source gives them in different places.
Experiments:
[1] = UV absorption: molar extinction coefficient; assay type: physicochemical
Experimental: Ethyl p-methoxy cinnamate (206.0 g, 1.0 mole), […] (306.0 g, 3.0 mole) and sodium methoxide (2.0 g) were charged in a pressure reactor. The air inside the reactor was flushed out by purging of nitrogen. The reaction mixture was then stirred at 180° C. (this generated pressure of 18 kg/cm^2) for 36 hours. The progress of reaction was monitored by disappearance of ethyl p-methoxy cinnamate on chromatography (TLC and HPLC). The TLC was performed on aluminium coated silica gel plates (Merck-60-F-254) and viewed with a UV lamp at 254 nm. HPLC was performed using reversed phase technique on a C-18 bonded (octadecyl silane) column and 60% aqueous methanol as mobile phase (1.0 ml/min) and detection at 280 nm. The excess amine was removed under vacuum.

[2] = Experimental: Virgin hair (5.0 g) were washed with 10% SLES solution and rinsed with plain water. The tresses were treated for exactly 5.0 minutes with clear shampoo (containing 2% β,β′-di (p-methoxy cinnamidopropyldimethylammonium chloride) ethyl ether) as described in Example I that was diluted five times with water. After the treatment the tresses were washed thoroughly with copious amount of water. The adsorbed quaternary was extracted from the hair surface by immersing each tress in isopropanol at 65° C. for 30 minutes. A known volume of this isopropanol/quaternary ammonium salt mixture was analysed by UV-spectroscopy to determine its absorption intensity.
[3] = remark: listed apart in the source
Experimental: The major ingredients were mixed with heating to 50° C. until a uniform homogenous mixture was formed. The resulting mixture was then cooled to room temperature with continuous stirring. The required chelating agent, colour, perfume were added. The viscosity was adjusted to 2500 cps with sodium chloride.
The substantivity experiment was performed as described under;
All ingredients were heated together under stirring to 70° C. till the reaction mass became homogenous and transparent. The reaction mass was cooled to 40° C. and the required amounts of chelating agents, perfume and colour were added. The molten mass was cast in moulds of desired shape to yield transparent bathing bar.

[4] = solid after removal of water

Row | molar extinction coefficient, ε ([1]; in methanol, at 290 nm, in M-1·cm-1 (unit assumed)) | Structure (SMILES) | molar extinction coefficient, ε [1] | molar extinction coefficient, ε ([1]; in aqueous solution at 292 nm λmax) | substantivity ([2]; clear shampoo of Example III containing 2% compound, diluted five times with water, 5.0 minutes treatment) | deposition of quaternary on cotton fabric (substantivity) ([2]; detergent powder of Example VII (2.0% compound)) | substantivity ([2]; transparent bathing bar of Example V (2.0% compound), procedure of Example III) | compatibility with anionic surfactant ([3]; transparent bathing bar of Example V, transparency unaffected) | compatibility with anionic surfactant ([3]; transparent shampoo of Example III (SLES-2)) | water solubility [4]
1 | – | COc1ccc(C=CC(=O)NCCC[N+](C)(C)CCOCC[N+](C)(C)CCCNC(=O)C=Cc2ccc(OC)cc2)cc1.[Cl-].[Cl-] [β,β′-di(p-Methoxy Cinnamidopropyldimethylammonium Chloride) Ethyl Ether] | 42,000 | 42,729 | 22 mg/100 g of hair | 21 mg/100 g of cotton fabric | 20 mg /100 g of hair | total compatibility | completely compatible | > 50%
2 | 24,224 | COc1ccc(C=CC(=O)NCCCN(C)C)cc1 [p-Methoxy Cinnamidopropyldimethylamine] | – | – | – | – | – | – | – | –
